Reference: ChEMBL document CHEMBL3774375, “Structure-Based Identification of Inhibitory Fragments Targeting the p300/CBP-Associated Factor Bromodomain” (J Med Chem, 2016)
Calls of active or inactive are those of the source. No cut-off for these calls is given here.

Legend:
[1] = target: T1, Histone acetyltransferase KAT2B (Homo sapiens, UniProt Q92831)
Target sequence in this assay (Q92831 whole entry, looked up): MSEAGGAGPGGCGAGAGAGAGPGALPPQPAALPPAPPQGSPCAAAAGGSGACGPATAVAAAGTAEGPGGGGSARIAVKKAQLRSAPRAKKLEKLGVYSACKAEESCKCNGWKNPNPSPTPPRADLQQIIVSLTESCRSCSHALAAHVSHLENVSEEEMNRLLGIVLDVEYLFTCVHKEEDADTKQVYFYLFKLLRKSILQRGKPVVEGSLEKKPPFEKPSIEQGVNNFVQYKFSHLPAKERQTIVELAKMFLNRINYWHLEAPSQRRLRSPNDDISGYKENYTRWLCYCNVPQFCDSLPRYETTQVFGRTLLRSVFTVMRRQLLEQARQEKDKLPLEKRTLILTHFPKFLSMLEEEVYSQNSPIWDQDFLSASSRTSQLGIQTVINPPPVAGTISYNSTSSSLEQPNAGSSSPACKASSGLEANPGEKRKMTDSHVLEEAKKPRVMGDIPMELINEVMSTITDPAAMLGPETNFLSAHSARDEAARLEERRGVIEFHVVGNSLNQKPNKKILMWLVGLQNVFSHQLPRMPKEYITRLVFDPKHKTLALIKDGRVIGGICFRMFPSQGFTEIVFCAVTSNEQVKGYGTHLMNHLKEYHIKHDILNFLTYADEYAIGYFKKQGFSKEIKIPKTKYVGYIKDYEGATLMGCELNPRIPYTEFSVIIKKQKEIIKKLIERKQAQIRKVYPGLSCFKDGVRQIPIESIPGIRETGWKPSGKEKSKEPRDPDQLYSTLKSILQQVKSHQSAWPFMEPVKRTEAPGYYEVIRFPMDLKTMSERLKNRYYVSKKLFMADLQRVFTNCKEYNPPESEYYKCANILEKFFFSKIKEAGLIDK
Description: Binding affinity to recombinant N-terminal His-tagged PCAF (715 to 831 residues) (unknown origin) expressed in Escherichia coli Rosetta cells at 1 mM by differential scanning fluorimetry

[2] = target: T2, Bromodomain-containing protein 9 (Homo sapiens) (UniProt Q9H8M2); experiment: Inhibition of BRD9 (unknown origin) at 25 uM by alphascreen assay
T2 sequence (whole entry): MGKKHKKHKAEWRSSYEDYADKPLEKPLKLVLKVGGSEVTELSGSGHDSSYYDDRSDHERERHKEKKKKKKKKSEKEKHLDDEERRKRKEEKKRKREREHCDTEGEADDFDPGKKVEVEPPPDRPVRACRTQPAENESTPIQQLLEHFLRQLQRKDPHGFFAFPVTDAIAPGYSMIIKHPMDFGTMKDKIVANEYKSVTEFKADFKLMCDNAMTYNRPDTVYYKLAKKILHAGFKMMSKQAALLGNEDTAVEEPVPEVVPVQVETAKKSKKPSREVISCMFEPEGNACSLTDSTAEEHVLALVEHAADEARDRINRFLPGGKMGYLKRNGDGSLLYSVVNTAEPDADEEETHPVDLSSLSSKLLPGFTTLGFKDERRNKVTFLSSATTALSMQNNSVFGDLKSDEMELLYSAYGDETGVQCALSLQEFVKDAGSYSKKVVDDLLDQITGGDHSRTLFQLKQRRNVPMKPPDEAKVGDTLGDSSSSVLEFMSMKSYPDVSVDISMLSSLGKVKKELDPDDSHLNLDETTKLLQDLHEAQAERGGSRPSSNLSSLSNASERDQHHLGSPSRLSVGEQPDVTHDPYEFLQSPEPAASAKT

[3] = target: T1, Histone acetyltransferase KAT2B; experiment: Binding affinity to N-terminal His-tagged PCAF (715 to 831 residues) (unknown origin) expressed in Escherichia coli Rosetta cells by isothermal titration calorimetry
Target sequence in this assay (Q92831 whole entry): as the sequence (Q92831 whole entry, looked up) above

[4] = target: Chromatin remodeling regulator CECR2 (Homo sapiens) (UniProt Q9BXF3); experiment: Binding affinity to recombinant human CECR2 by differential scanning fluorimetry
Sequence of Chromatin remodeling regulator CECR2 (Homo sapiens) (Q9BXF3 whole entry, looked up, the tested form may be a part): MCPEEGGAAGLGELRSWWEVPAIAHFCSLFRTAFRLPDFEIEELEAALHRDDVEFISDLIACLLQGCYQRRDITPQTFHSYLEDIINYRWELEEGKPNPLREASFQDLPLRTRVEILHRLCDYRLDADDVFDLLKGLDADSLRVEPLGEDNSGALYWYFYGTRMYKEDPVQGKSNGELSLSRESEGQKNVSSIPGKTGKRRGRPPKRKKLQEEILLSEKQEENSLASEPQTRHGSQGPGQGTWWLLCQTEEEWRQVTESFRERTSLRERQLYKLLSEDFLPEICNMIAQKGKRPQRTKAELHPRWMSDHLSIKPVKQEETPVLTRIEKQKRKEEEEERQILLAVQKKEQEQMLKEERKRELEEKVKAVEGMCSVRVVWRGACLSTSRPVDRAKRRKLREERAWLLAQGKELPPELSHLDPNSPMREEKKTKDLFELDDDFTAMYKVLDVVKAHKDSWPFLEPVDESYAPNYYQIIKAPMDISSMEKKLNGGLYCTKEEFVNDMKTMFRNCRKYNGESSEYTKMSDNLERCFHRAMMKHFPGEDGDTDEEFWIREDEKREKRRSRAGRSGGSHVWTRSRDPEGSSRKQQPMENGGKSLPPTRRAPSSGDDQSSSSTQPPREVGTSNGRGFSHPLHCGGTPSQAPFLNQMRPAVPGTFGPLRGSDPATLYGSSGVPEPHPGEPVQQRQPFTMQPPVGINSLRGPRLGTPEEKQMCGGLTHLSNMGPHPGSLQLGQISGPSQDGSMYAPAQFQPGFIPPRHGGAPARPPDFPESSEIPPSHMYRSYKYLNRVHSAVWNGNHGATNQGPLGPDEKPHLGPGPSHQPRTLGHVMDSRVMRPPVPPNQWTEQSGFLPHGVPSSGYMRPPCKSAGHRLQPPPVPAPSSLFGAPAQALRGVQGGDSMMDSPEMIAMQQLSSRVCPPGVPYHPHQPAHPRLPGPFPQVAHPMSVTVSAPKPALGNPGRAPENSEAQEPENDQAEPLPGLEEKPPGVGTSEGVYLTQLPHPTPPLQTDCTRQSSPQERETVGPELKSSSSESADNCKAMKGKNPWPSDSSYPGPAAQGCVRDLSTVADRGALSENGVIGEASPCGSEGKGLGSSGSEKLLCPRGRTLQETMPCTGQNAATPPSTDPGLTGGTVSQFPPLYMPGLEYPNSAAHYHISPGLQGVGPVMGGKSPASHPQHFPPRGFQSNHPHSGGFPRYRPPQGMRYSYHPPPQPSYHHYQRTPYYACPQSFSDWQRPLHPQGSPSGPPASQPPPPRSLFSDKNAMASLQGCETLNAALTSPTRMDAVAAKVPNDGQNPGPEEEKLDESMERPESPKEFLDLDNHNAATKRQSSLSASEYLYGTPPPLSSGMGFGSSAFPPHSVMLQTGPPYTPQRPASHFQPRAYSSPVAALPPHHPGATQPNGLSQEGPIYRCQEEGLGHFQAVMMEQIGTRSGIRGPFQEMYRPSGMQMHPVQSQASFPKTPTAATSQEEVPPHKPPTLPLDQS

[5] = target: T1, Histone acetyltransferase KAT2B; experiment: Binding affinity to recombinant N-terminal His-tagged PCAF (715 to 831 residues) (unknown origin) expressed in Escherichia coli Rosetta cells at 0.5 mM by differential scanning fluorimetry
Target sequence in this assay (Q92831 whole entry, looked up): as the sequence (Q92831 whole entry, looked up) above

[6] = target: T3, Bromodomain-containing protein 7 (Homo sapiens) (UniProt Q9NPI1); experiment: Binding affinity to recombinant human BRD7 by differential scanning fluorimetry
T3 sequence (whole entry): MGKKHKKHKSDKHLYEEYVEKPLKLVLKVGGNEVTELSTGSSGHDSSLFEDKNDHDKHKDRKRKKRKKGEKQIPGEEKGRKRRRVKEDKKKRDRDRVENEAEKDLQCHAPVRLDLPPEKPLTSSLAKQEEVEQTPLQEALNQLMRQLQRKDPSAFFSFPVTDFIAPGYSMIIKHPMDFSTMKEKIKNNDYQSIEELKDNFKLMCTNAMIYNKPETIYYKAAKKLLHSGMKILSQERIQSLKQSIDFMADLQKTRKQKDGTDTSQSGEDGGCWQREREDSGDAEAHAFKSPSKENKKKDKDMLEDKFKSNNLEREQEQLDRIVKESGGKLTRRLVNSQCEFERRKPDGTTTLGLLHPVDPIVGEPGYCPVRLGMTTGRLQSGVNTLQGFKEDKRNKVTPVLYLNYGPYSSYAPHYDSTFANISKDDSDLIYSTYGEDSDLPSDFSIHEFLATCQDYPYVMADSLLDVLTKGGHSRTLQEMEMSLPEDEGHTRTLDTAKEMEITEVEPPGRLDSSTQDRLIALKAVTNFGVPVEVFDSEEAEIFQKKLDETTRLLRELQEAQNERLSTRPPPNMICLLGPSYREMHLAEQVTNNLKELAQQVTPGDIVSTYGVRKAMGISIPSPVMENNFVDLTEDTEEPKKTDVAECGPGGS

| ΔTm [1] [°C] | other results | Structure (SMILES) |
| --- | --- | --- |
| 1.3 | – | Oc1ccccc1-c1ccno1 |
| 0.8 | – | COc1cccc2onc(N)c12 |
| 0.9 | – | Cc1nn(CCO)c2c1C(=O)CCC2 |
| 2.6 | inhibition [2]: Active | CC(=O)Nc1ccc2c(C)cc(=O)n(C)c2c1 |
| 0.7 | – | COC(=O)c1ccc(N2CCOCC2)nc1 |
| 0.8 | – | NC(=O)c1cccc2c1OCCO2 |
| 0.6 | – | Cc1c(N)c(=O)n(-c2ccccc2)n1C |
| – | Kd [3]: 6.8 µM; ΔTm [4]: 7.1 °C; ΔTm [5]: 3.3 °C; ΔTm [6]: 6.5 °C | CNC(=O)c1cc(OCC(=O)Nc2ccccc2)ccc1OC1CCOCC1 |
| – | inhibition [2]: Active | Cc1cc(=O)n(C)c2cc(NS(C)(=O)=O)ccc12 |
| 1.5 | – | CN1Cc2ccccc2C1=O |
| 1 | – | NCc1ccc(-c2csnn2)cc1 |
| 2 | – | Cn1c(=O)ccc2ccccc21 |
| 1 | – | NC1CCN(C(=O)C2CC2)CC1 |
| 2 | – | NC(=O)c1ccc2[nH]ccc2c1 |
